Assay results taken from patent US20260092061A1, “COMPOUNDS FOR TARGETED PROTEIN DEGRADATION” (Amphista Therapeutics Limited, priority 2022, published 2026).

Legend:
BRD9 [1] = biological target: T1, BRD9 (Homo sapiens, UniProt Q9H8M2); experiment: BRD9 degradation, HiBiT-BRD9 KI HEK293 (LgBiT) cells, NanoGlo Lytic Endpoint assay (Assay Protocol 1); assay type: cell-based; conditions: Assay protocol 1, BRD9 degradation; for DC50: read-out: DC50; for Dmax: HEK293, read-out: Dmax
T1 sequence (Q9H8M2 1-597): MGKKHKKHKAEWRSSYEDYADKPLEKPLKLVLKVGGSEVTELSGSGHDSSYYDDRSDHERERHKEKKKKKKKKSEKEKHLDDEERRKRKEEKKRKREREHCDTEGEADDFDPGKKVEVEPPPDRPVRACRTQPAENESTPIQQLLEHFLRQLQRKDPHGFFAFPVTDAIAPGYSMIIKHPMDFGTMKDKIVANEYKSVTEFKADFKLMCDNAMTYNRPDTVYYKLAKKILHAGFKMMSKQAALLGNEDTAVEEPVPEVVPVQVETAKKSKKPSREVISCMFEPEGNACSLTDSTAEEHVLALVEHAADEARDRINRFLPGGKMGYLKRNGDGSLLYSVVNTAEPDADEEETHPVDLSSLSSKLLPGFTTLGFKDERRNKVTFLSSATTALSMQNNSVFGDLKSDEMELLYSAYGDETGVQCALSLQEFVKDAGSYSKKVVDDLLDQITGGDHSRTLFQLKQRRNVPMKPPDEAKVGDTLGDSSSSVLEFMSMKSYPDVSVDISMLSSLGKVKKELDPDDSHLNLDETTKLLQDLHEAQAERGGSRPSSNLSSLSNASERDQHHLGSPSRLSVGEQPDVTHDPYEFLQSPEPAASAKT
In short: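 HiBiT-tagged BRD9 knock-in HEK293 (LgBiT) cells exposed to compounds for 6 h at 37 °C, 5% CO2. Residual BRD9 measured by HiBiT lytic luminescence. % BRD9 remaining normalised to DMSO-treated cells (high) and no-cell wells (low).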

BRD9 [2] = biological target: T1, BRD9; experiment: Degradation of BRD9 (IF), immunofluorescence in MV4-11 cells, 24 hours (Assay Protocol 2); assay type: cell-based; set-up: A suspension of MV4-11 cells (ATCC CRL-9591) was prepared; host or cells: MV4-11; conditions: BRD9 degradation; for DC50: Assay protocol 2, read-out: DC50; for Dmax: MV4-11, Assay protocol 2, read-out: Dmax
In short: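 % BRD9 remaining, scaled between DMSO (high) and 100 nM CFT-8634 (low) control wells, derives from mean Alexa 647 contrast in central nuclei by high-content imaging. MV4-11 cells had 24 h compound exposure at 37° C. before PFA fixation, Triton permeabilisation and anti-BRD9 E4Q3F immunostaining.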

DC50 (BRD9 [1])	Dmax (BRD9 [1])	DC50 (BRD9 [2])	Dmax (BRD9 [2])	Structure (SMILES)
0.00125 to 0.01 µM	> 75%	0.00125 to 0.01 µM	40 to 70%	COc1cc(-c2cn(C)c(=O)c(C)c2C)cc(OC)c1CN1CCN(Cc2cccc3c2CCN(C(=O)/C(C#N)=C/C2CCOC2)C3C)CC1 (mixture of isomers) [Compound B94, (E/Z)-2-(5-((4-(2,6-dimethoxy-4-(1,4,5-trimethyl-6-oxo-1,6-dihydropyridin-3-yl)benzyl)piperazin-1-yl)methyl)-1-methyl-1,2,3,4-tetrahydroisoquinoline-2-carbonyl)-3-(tetrahydrofuran-3-yl)acrylonitrile]
0.00125 to 0.01 µM	> 75%	< 0.00125 µM	> 75%	COc1cc(-c2cn(C)c(=O)c(C)c2C)cc(OC)c1CN1CCN(Cc2cccc3c2CCN(C(=O)/C(C#N)=C/C2CC(F)(F)C2)C3C)C2(CC2)C1 (mixture of isomers) [Compound B116]
0.00125 to 0.01 µM	> 75%	< 0.00125 µM	> 75%	COc1cc(-c2cn(C)c(=O)c(C)c2C)cc(OC)c1CN1CCN(Cc2cccc3c2CCN(C(=O)/C(C#N)=C/C2(C)CCOCC2)C3C)C2(CC2)C1 (mixture of isomers) [Compound B123, (E/Z)-2-(5-((7-(2,6-dimethoxy-4-(1,4,5-trimethyl-6-oxo-1,6-dihydropyridin-3-yl)benzyl)-4,7-diazaspiro[2.5]octan-4-yl)methyl)-1-methyl-1,2,3,4-tetrahydroisoquinoline-2-carbonyl)-3-(4-methyltetrahydro-2H-pyran-4-yl)acrylonitrile]
< 0.00125 µM	> 75%	< 0.00125 µM	> 75%	COCC1(/C=C(\C#N)C(=O)N2CCc3c(CN4CCN(Cc5c(OC)cc(-c6cn(C)c(=O)c(C)c6C)cc5OC)CC45CC5)cccc3C2C)CC1 (mixture of isomers) [Compound B124, (E/Z)-2-(5-((7-(2,6-dimethoxy-4-(1,4,5-trimethyl-6-oxo-1,6-dihydropyridin-3-yl)benzyl)-4,7-diazaspiro[2.5]octan-4-yl)methyl)-1-methyl-1,2,3,4-tetrahydroisoquinoline-2-carbonyl)-3-(1-(methoxymethyl)cyclopropyl)acrylonitrile]
< 0.00125 µM	> 75%	< 0.00125 µM	> 75%	COc1cc(-c2cn(C)c(=O)c(C)c2C)cc(OC)c1CN1CCN(Cc2cccc3c2CCN(C(=O)/C(C#N)=C\C(C)(C)CF)C3C)C2(CC2)C1 (mixture of isomers) [Compound B125, (E/Z)-2-(5-((7-(2,6-dimethoxy-4-(1,4,5-trimethyl-6-oxo-1,6-dihydropyridin-3-yl)benzyl)-4,7-diazaspiro[2.5]octan-4-yl)methyl)-1-methyl-1,2,3,4-tetrahydroisoquinoline-2-carbonyl)-5-fluoro-4,4-dimethylpent-2-enenitrile]
0.00125 to 0.01 µM	> 75%	0.00125 to 0.01 µM	70 to 75%	COc1cc(-c2cn(C)c(=O)c(C)c2C)cc(OC)c1CN1CCN(Cc2cccc3c2CCN(C(=O)/C(C#N)=C/C(C)(C)N2CCN(C4COC4)CC2)C3C)C2(CC2)C1 (mixture of isomers) [Compound B126, (E/Z)-2-(5-((7-(2,6-dimethoxy-4-(1,4,5-trimethyl-6-oxo-1,6-dihydropyridin-3-yl)benzyl)-4,7-diazaspiro[2.5]octan-4-yl)methyl)-1-methyl-1,2,3,4-tetrahydroisoquinoline-2-carbonyl)-4-methyl-4-(4-(oxetan-3-yl)piperazin-1-yl)pent-2-enenitrile]

The remaining lines, values behind:

Structure (SMILES)	DC50 (BRD9 [1])	Dmax (BRD9 [1])	DC50 (BRD9 [2])	Dmax (BRD9 [2])
COc1cc(-c2cn(C)c(=O)c(C)c2C)cc(OC)c1CN1C[C@H](C)N(Cc2cccc3c2CCN(C(=O)/C(C#N)=C/C(C)(C)C)C3C)C[C@H]1C (mixture of isomers) [Compound B122, (E/Z)-2-(5-(((2S,5R)-4-(2,6-dimethoxy-4-(1,4,5-trimethyl-6-oxo-1,6-dihydropyridin-3-yl)benzyl)-2,5-dimethylpiperazin-1-yl)methyl)-1-methyl-1,2,3,4-tetrahydroisoquinoline-2-carbonyl)-4,4-dimethylpent-2-enenitrile]	0.00125 to 0.01 µM	> 75%	0.01 to 0.025 µM	> 75%
COc1cc(-c2cn(C)c(=O)c(C)c2C)ccc1OC1CCN(Cc2cccc3c2CCN(C(=O)/C(C#N)=C/C(C)(C)C)C3C)CC1 (mixture of isomers) [Compound B127, (E/Z)-2-(5-((4-(2-methoxy-4-(1,4,5-trimethyl-6-oxo-1,6-dihydropyridin-3-yl)phenoxy)piperidin-1-yl)methyl)-1-methyl-1,2,3,4-tetrahydroisoquinoline-2-carbonyl)-4,4-dimethylpent-2-enenitrile]	0.00125 to 0.01 µM	> 75%	0.00125 to 0.01 µM	> 75%
CCCC(c1ccc(C(=O)N(C)CCCCC(=O)N2CCN(Cc3c(OC)cc(-c4cn(C)c(=O)c(C)c4C)cc3OC)CC2)cc1)N(C)C(=O)/C(C#N)=C/c1nccs1 (mixture of isomers) [Compound B181, (E/Z)-4-(1-(2-cyano-N-methyl-3-(thiazol-2-yl)acrylamido)butyl)-N-(5-(4-(2,6-dimethoxy-4-(1,4,5-trimethyl-6-oxo-1,6-dihydropyridin-3-yl)benzyl)piperazin-1-yl)-5-oxopentyl)-N-methylbenzamide]		40 to 70%	0.01 to 0.025 µM	40 to 70%
CCCC(c1ccc(C(=O)N(C)CCCCCCC(=O)N2CCN(Cc3c(OC)cc(-c4cn(C)c(=O)c(C)c4C)cc3OC)CC2)cc1)N(C)C(=O)/C(C#N)=C/c1nccs1 (mixture of isomers) [Compound B182, (E/Z)-4-(1-(2-cyano-N-methyl-3-(thiazol-2-yl)acrylamido)butyl)-N-(7-(4-(2,6-dimethoxy-4-(1,4,5-trimethyl-6-oxo-1,6-dihydropyridin-3-yl)benzyl)piperazin-1-yl)-7-oxoheptyl)-N-methylbenzamide]	0.025 to 1 µM	40 to 70%	0.00125 to 0.01 µM	40 to 70%
CCCC(c1ccc(C(=O)N(C)CCCCCCCCC(=O)N2CCN(Cc3c(OC)cc(-c4cn(C)c(=O)c(C)c4C)cc3OC)CC2)cc1)N(C)C(=O)/C(C#N)=C/c1nccs1 (mixture of isomers) [Compound B183, (E/Z)-4-(1-(2-cyano-N-methyl-3-(thiazol-2-yl)acrylamido)butyl)-N-(9-(4-(2,6-dimethoxy-4-(1,4,5-trimethyl-6-oxo-1,6-dihydropyridin-3-yl)benzyl)piperazin-1-yl)-9-oxononyl)-N-methylbenzamide]	0.025 to 1 µM	40 to 70%	0.00125 to 0.01 µM	> 75%
CCCC(c1cccc(C(=O)N2CCN(Cc3c(OC)cc(-c4cn(C)c(=O)c(C)c4C)cc3OC)CC2)c1)N(C)C(=O)/C(C#N)=C/c1nccs1 (mixture of isomers) [Compound B184, (E/Z)-2-cyano-N-(1-(3-(4-(2,6-dimethoxy-4-(1,4,5-trimethyl-6-oxo-1,6-dihydropyridin-3-yl)benzyl)piperazine-1-carbonyl)phenyl)butyl)-N-methyl-3-(thiazol-2-yl)acrylamide]		40 to 70%	0.00125 to 0.01 µM	40 to 70%
CCCC(c1cccc(CCC(=O)N2CCN(Cc3c(OC)cc(-c4cn(C)c(=O)c(C)c4C)cc3OC)CC2)c1)N(C)C(=O)/C(C#N)=C/c1nccs1 (mixture of isomers) [Compound B185, (E/Z)-2-cyano-N-(1-(3-(3-(4-(2,6-dimethoxy-4-(1,4,5-trimethyl-6-oxo-1,6-dihydropyridin-3-yl)benzyl)piperazin-1-yl)-3-oxopropyl)phenyl)butyl)-N-methy-3-(thiazol-2-yl)acrylamide]	0.01 to 0.025 µM	40 to 70%	0.00125 to 0.01 µM	> 75%
CCCC(c1ccccc1CCC(=O)N1CCN(Cc2c(OC)cc(-c3cn(C)c(=O)c(C)c3C)cc2OC)CC1)N(C)C(=O)/C(C#N)=C/c1nccs1 (mixture of isomers) [Compound B186, (E/Z)-2-cyano-N-(1-(2-(3-(4-(2,6-dimethoxy-4-(1,4,5-trimethyl-6-oxo-1,6-dihydropyridin-3-yl)benzyl)piperazin-1-yl)-3-oxopropyl)phenyl)butyl)-N-methyl-3-(thiazol-2-yl)acrylamide]	0.00125 to 0.01 µM	> 75%	< 0.00125 µM	> 75%
